The supplement of paper PMC10307832

Tests used:
Test in all cases: relative viability (nuclei count vs DMSO), 5 days (fraction); higher = more cells survive
[1] = compound: CC[C@H](C)N1C=C(C2=C(C=C(C=C21)C3=CN=C(C=C3)N4CCNCC4)C(=O)NCC5=C(C=C(NC5=O)C)C)C [GSK126] + CC(=O)c1c(C)c2cnc(Nc3ccc(N4CCNCC4)cn3)nc2n(C2CCCC2)c1=O [Palbociclib] (partner 0.5 µM)
Procedure, shortened: (§1)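 Nuclei were stained with Hoechst during a one-step fixation (final 0.05% Triton X-100, 1% formaldehyde, 1 ug/ml Hoechst) carried out 5 days after dosing, then counted on 4× images. The cells, lung cancer lines in 1536-well plates, had been dosed by pin tool the day after seeding with one drug alone or a fixed anchor-drug dose plus five library-drug doses (not always all listed) in √10 steps. Relative viability is the nuclei count in treated wells divided by that in vehicle wells, and each value is the median of duplicate plates.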

[2] = compound: C1CC(C1)(C(=O)O)C(=O)O.[NH2-].[NH2-].[Pt+2] [Carboplatin] + O=C(c1cc(Cc2n[nH]c(=O)c3ccccc23)ccc1F)N1CCN(C(=O)C2CC2)CC1 [Olaparib] (partner 8 µM)
Procedure, shortened: as §1

[3] = compound: NS(=O)(=O)OC[C@@H]1C[C@@H](n2ccc3c(N[C@H]4CCc5ccccc54)ncnc32)C[C@@H]1O [MLN4924] + Nc1ncn([C@H]2C[C@H](O)[C@@H](CO)O2)c(=O)n1 [Decitabine] (partner 2 µM)
Procedure, shortened: as §1

[4] = compound: CC[C@H](C)N1C=C(C2=C(C=C(C=C21)C3=CN=C(C=C3)N4CCNCC4)C(=O)NCC5=C(C=C(NC5=O)C)C)C [GSK126] + COc1cc2c(Oc3ccc(NC(=O)C4(C(=O)Nc5ccc(F)cc5)CC4)cc3F)ccnc2cc1OCCCN1CCOCC1 [Foretinib] (partner 0.25 µM)
Procedure, shortened: as §1

| Cell Line | relative viability ([1]; first compound 0.08 µM) | relative viability ([1]; first compound 0.253 µM) | relative viability ([1]; first compound 0.8 µM) | relative viability ([1]; first compound 2.53 µM) | relative viability ([1]; first compound 8 µM) | relative viability ([2]; first compound 0.08 µM) | relative viability ([2]; first compound 0.253 µM) | relative viability ([2]; first compound 0.8 µM) | relative viability ([2]; first compound 2.53 µM) | relative viability ([2]; first compound 8 µM) | relative viability ([3]; first compound 0.04 µM) | relative viability ([3]; first compound 0.1265 µM) | relative viability ([3]; first compound 0.4 µM) | relative viability ([3]; first compound 1.265 µM) | relative viability ([3]; first compound 4 µM) | relative viability ([4]; first compound 0.08 µM) | relative viability ([4]; first compound 0.253 µM) | relative viability ([4]; first compound 0.8 µM) | relative viability ([4]; first compound 2.53 µM) | relative viability ([4]; first compound 8 µM) |
| --- | --- | --- | --- | --- | --- | --- | --- | --- | --- | --- | --- | --- | --- | --- | --- | --- | --- | --- | --- | --- |
| HCC-44 | 0.96 | 1.04 | 1.01 | 0.916 | 0.894 | 1.02 | 0.93 | 0.972 | 0.944 | 0.952 | 0.874 | 0.85 | 0.582 | 0.421 | 0.399 |  |  |  |  |  |
| HCC-78 | 0.473 | 0.38 | 0.497 | 0.461 | 0.492 | 0.888 | 0.851 | 0.574 | 0.684 | 0.726 | 0.685 | 0.775 | 0.485 | 0.27 | 0.244 | 0.561 | 0.556 | 0.521 | 0.63 | 0.548 |
| HCC-366 | 0.391 | 0.399 | 0.425 | 0.407 | 0.374 | 0.387 | 0.363 | 0.364 | 0.288 | 0.208 | 0.335 | 0.338 | 0.279 | 0.164 | 0.0343 | 1.02 | 0.974 | 0.907 | 0.892 | 0.935 |
| HCC-827 | 0.492 | 0.54 | 0.486 | 0.483 | 0.469 | 0.61 | 0.651 | 0.639 | 0.593 | 0.564 | 0.336 | 0.308 | 0.218 | 0.15 | 0.2 | 1.02 | 1.02 | 1.01 | 1.03 | 1.09 |
| HOP-62 | 0.501 | 0.372 | 0.468 | 0.398 | 0.444 | 0.391 | 0.398 | 0.444 | 0.506 | 0.255 | 0.195 | 0.201 | 0.0844 | 0.0618 | 0.0785 | 1.11 | 1.08 | 1.01 | 1.21 | 1.04 |
| IA-LM |  |  |  |  |  | 0.836 | 0.74 | 0.715 | 0.905 | 0.57 |  |  |  |  |  | 1.26 | 1.03 | 0.994 | 1.03 | 1.08 |
| LC-2-ad | 0.497 | 0.489 | 0.479 | 0.481 | 0.478 | 0.699 | 0.7 | 0.666 | 0.675 | 0.522 | 0.791 | 0.748 | 0.585 | 0.508 | 0.322 | 1.08 | 0.971 | 0.915 | 0.995 | 1.07 |
| LCLC-97TM1 | 0.283 | 0.265 | 0.232 | 0.308 | 0.255 | 0.334 | 0.524 | 0.353 | 0.506 | 0.332 | 0.188 | 0.156 | 0.133 | 0.0597 | 0.0565 | 1.03 | 0.942 | 0.954 | 1.06 | 0.994 |
| LCLC-103H | 0.452 | 0.546 | 0.466 | 0.441 | 0.5 | 0.754 | 0.783 | 0.777 | 0.74 | 0.754 | 0.807 | 0.638 | 0.547 | 0.261 | 0.315 | 0.86 | 0.744 | 0.738 | 0.926 | 0.814 |
| LK-2 | 0.682 | 0.657 | 0.738 | 0.558 | 0.681 | 0.743 | 0.702 | 0.726 | 0.65 | 0.844 | 0.228 | 0.253 | 0.216 | 0.118 | 0.156 | 1.44 | 1.33 | 1.28 | 1.15 | 1.19 |
| LOU-NH91 | 0.449 | 0.541 | 0.523 | 0.536 | 0.57 | 0.955 | 0.973 | 0.873 | 0.831 | 0.844 | 0.793 | 0.797 | 0.684 | 0.557 | 0.523 | 0.991 | 0.953 | 0.892 | 0.974 | 0.969 |
| NCI-H522 | 1.09 | 0.772 | 0.991 | 1.06 | 1.07 | 0.586 | 0.663 | 0.618 | 0.679 | 0.607 | 0.626 | 0.598 | 0.571 | 0.401 | 0.406 |  |  |  |  |  |
| NCI-H596 |  |  |  |  |  | 0.6 | 0.617 | 0.623 | 0.601 | 0.585 | 1.09 | 1.1 | 0.933 | 0.97 | 0.727 | 0.854 | 0.497 | 1.08 | 0.975 | 0.809 |
| NCI-H1299 |  |  |  |  |  | 0.967 | 0.969 | 0.96 | 0.947 | 0.826 |  |  |  |  |  | 1.14 | 1.13 | 1.05 | 1.07 | 1.11 |
| NCI-H1563 |  |  |  |  |  |  |  |  |  |  |  |  |  |  |  | 1.01 | 0.9 | 0.934 | 0.893 | 0.95 |
| NCI-H1623 |  |  |  |  |  |  |  |  |  |  |  |  |  |  |  | 0.941 | 0.888 | 0.916 | 0.883 | 0.799 |
| NCI-H1648 | 0.291 | 0.357 | 0.275 | 0.288 | 0.293 | 1.39 | 1.29 | 1.21 | 0.765 | 0.897 | 0.572 | 0.507 | 0.398 | 0.305 | 0.336 |  |  |  |  |  |
| NCI-H1703 |  |  |  |  |  | 0.646 | 0.329 | 0.453 | 0.608 | 0.325 |  |  |  |  |  | 0.354 | 0.357 | 0.311 | 0.373 | 0.381 |
| NCI-H1792 | 0.642 | 0.627 | 0.659 | 0.661 | 0.629 | 0.72 | 0.548 | 0.412 | 0.289 | 0.265 | 0.72 | 0.556 | 0.571 | 0.377 | 0.219 |  |  |  |  |  |
| NCI-H2228 | 0.985 | 0.519 | 0.713 | 0.674 | 0.967 | 0.927 | 0.514 | 0.553 | 0.645 | 0.436 |  |  |  |  |  | 0.871 | 0.828 | 0.789 | 0.832 | 0.628 |
